Test results from ChEMBL document CHEMBL2176994, “Radiosynthesis of PET radiotracer as a prodrug for imaging group II metabotropic glutamate receptors in vivo” (Bioorg Med Chem Lett, 2012).

Legend:
[1] = biological target: T1, Metabotropic glutamate receptor 2 (Homo sapiens, UniProt Q14416); experiment: Agonist activity at mGLUR2 expressed in CHO cells; assay type: functional, cell-based
[2] = biological target: T2, Metabotropic glutamate receptor 3 (Homo sapiens, UniProt Q14832); experiment: Agonist activity at mGLUR3 expressed in CHO cells; assay type: functional, cell-based
[3] = biological target: T2, Metabotropic glutamate receptor 3; experiment: Antagonist activity at mGLUR3 expressed in CHO cells assessed as inhibition of glutamate-induced inhibition of forskolin-stimulated cAMP production; assay type: functional, cell-based
[4] = biological target: T2, Metabotropic glutamate receptor 3; experiment: Binding affinity to mGLUR3
[5] = biological target: T1, Metabotropic glutamate receptor 2; experiment: Binding affinity to mGLUR2
[6] = biological target: T1, Metabotropic glutamate receptor 2; experiment: Antagonist activity at mGLUR2 expressed in CHO cells assessed as inhibition of glutamate-induced inhibition of forskolin-stimulated cAMP production
[7] = biological target: Metabotropic glutamate receptor 3 (Rattus norvegicus, UniProt P31422); experiment: Agonist activity at mGLUR3 in rat cerebral cortex assessed as inhibition of forskolin-stimulated cAMP production; assay type: functional, tissue-based
Brain [8] = experiment: Drug uptake in Sprague-Dawley rat brain at […], iv at 2 mins by microPET analysis; assay type: ADME, organism-based; settings: in vivo
Brain [9] = experiment: Drug uptake in Sprague-Dawley rat brain at […], iv from 20 to 40 mins by microPET analysis in presence of LY341495; assay type: ADME, organism-based; settings: in vivo
[10] = Drug uptake in Sprague-Dawley rat cingulate cortex at […], iv from 20 to 40 mins by microPET analysis in presence of LY341495; assay type: ADME, organism-based; settings: in vivo
[11] = Drug uptake in Sprague-Dawley rat olfactory lobe at […], iv from 20 to 40 mins by microPET analysis in presence of LY341495; assay type: ADME, organism-based; settings: in vivo
Thalamus = experiment: Drug uptake in Sprague-Dawley rat thalamus at 0.4 uCi, iv from 20 to 40 mins by microPET analysis in presence of LY341495; assay type: ADME, organism-based; settings: in vivo
Hippocampus [12] = experiment: Drug uptake in Sprague-Dawley rat hippocampus at […], iv from 20 to 40 mins by microPET analysis in presence of LY341495; assay type: ADME, organism-based; settings: in vivo
Hippocampus [13] = experiment: Drug uptake in Sprague-Dawley rat hippocampus at […], iv from 1 to 40 mins by microPET analysis; assay type: ADME, organism-based; settings: in vivo
Cerebellum = experiment: Drug uptake in Sprague-Dawley rat cerebellum at […], iv from 20 to 40 mins by microPET analysis in presence of LY341495; assay type: ADME, organism-based; settings: in vivo
[14] = Drug uptake in Sprague-Dawley rat motor cortex at […], iv from 20 to 40 mins by microPET analysis in presence of LY341495; assay type: ADME, organism-based; settings: in vivo
Cortex = experiment: Drug uptake in Sprague-Dawley rat cortex at […], iv from 1 to 40 mins by microPET analysis; assay type: ADME, organism-based; settings: in vivo
Striatum [15] = experiment: Drug uptake in Sprague-Dawley rat striatum at […], iv from 1 to 40 mins by microPET analysis; assay type: ADME, organism-based; settings: in vivo
Brain [16] = experiment: Drug uptake in Sprague-Dawley rat brain at […], iv from 1 to 40 mins by microPET analysis; assay type: ADME, organism-based; settings: in vivo
Striatum [17] = experiment: Drug uptake in Sprague-Dawley rat striatum at 0.4 uCi, iv from 20 to 40 mins by microPET analysis in presence of LY341495; assay type: ADME, organism-based; settings: in vivo
Brain [18] = experiment: Drug uptake in Sprague-Dawley rat brain at […], iv from 20 to 25 mins by microPET analysis; assay type: ADME, organism-based; settings: in vivo

T1 sequence (Q14416 whole entry): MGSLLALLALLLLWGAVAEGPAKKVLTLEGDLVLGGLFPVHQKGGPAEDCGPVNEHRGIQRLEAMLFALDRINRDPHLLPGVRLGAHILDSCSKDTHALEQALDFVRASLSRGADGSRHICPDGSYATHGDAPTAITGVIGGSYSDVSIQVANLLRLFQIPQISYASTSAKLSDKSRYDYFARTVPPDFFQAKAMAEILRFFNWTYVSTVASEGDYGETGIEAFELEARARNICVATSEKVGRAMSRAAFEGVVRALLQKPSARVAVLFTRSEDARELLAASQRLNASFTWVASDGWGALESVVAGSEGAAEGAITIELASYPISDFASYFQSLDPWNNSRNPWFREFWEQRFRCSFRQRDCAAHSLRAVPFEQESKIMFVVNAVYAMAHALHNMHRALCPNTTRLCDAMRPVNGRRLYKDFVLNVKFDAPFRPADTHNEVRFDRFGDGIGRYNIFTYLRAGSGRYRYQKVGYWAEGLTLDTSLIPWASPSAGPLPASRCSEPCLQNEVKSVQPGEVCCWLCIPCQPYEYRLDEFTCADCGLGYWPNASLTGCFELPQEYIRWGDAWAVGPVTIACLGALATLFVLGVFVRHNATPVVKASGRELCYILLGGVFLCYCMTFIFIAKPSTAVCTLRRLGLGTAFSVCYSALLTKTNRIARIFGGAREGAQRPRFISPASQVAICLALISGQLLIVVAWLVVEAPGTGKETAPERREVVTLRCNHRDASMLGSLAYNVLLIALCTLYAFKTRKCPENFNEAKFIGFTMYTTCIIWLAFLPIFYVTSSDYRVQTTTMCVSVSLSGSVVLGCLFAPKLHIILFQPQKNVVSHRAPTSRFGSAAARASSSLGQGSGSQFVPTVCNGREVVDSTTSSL
T2 sequence (Q14832 whole entry): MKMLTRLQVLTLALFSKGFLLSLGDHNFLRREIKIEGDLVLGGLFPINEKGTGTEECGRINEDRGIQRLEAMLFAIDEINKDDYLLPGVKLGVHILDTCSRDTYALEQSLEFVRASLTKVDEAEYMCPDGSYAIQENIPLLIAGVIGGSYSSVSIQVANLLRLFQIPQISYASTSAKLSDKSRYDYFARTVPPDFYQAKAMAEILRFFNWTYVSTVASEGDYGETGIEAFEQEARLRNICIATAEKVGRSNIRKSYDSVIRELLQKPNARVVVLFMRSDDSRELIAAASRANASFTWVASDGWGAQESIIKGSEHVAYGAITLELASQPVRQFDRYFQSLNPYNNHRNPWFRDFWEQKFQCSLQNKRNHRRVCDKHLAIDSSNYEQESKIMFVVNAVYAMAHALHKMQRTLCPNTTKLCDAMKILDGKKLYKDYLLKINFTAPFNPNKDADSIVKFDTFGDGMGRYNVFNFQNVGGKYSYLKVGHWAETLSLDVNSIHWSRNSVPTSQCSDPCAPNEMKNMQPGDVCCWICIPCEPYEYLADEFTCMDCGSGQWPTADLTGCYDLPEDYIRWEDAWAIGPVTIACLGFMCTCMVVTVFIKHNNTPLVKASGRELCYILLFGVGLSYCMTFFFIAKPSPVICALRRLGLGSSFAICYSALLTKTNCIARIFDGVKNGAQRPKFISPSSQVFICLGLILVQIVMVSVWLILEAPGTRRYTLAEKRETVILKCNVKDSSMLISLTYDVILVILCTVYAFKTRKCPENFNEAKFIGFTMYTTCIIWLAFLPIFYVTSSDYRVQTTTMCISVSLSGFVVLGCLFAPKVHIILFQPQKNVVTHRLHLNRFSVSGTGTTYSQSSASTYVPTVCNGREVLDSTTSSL
Sequence of Metabotropic glutamate receptor 3 (Rattus norvegicus, UniProt P31422) (P31422 whole entry): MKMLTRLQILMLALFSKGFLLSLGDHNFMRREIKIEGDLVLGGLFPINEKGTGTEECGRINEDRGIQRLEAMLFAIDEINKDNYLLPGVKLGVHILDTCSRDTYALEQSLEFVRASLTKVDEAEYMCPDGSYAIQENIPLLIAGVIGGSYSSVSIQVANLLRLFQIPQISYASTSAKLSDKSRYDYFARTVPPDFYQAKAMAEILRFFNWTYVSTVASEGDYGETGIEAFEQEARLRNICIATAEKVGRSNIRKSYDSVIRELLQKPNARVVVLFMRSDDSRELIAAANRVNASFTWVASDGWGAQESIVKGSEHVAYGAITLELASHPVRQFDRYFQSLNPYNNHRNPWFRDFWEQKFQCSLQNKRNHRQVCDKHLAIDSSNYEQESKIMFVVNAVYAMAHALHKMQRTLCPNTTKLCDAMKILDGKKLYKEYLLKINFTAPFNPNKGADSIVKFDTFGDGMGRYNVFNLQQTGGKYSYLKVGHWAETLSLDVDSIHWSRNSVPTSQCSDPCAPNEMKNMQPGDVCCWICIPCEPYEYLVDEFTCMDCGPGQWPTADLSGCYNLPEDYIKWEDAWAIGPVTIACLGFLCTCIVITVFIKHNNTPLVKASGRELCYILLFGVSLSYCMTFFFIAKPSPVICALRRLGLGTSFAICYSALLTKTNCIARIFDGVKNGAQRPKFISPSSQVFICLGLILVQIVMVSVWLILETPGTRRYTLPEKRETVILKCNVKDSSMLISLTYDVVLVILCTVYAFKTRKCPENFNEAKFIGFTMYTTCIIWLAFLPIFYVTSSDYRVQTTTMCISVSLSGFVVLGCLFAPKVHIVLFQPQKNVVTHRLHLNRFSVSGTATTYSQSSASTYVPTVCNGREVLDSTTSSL

N[C@@]1(C(=O)O)CC(=O)[C@@H]2[C@H]1[C@@]2(F)C(=O)O
EC50 [1]: 0.57 nM
EC50 [2]: 2.07 nM

N[C@]1(C(=O)O)[C@H]2[C@@H](C[C@H]1OCc1ccc(Cl)c(Cl)c1)[C@]2(F)C(=O)O
IC50 [3]: 24 nM
Ki [4]: 4.5 nM
Ki [5]: 2.2 nM
IC50 [6]: 20 nM

N[C@@]1(C(=O)O)CC[C@H]2[C@H](C(=O)O)[C@H]21
EC50 [7]: 38 nM

COC(=O)[C@H]1C[C@@H]1[C@@](N)(CCc1cccc(O[11CH3])c1)C(=O)OC
Drug uptake (Brain [8]): 2.5 %ID/cm3
Drug uptake (Brain [9]): Not Active
Drug uptake [10]: Not Active
Drug uptake [11]: Active
Drug uptake (Thalamus): Not Active
Drug uptake (Hippocampus [12]): Not Active
Drug uptake (Hippocampus [13]): Active
Drug uptake (Cerebellum): Not Active
Drug uptake [14]: Not Active
Drug uptake (Cortex): Active
Drug uptake (Striatum [15]): Active
Drug uptake (Brain [16]): Active
Drug uptake (Striatum [17]): Not Active

[11CH3]Oc1cccc(CC[C@@](N)(C(=O)O)[C@H]2C[C@@H]2C(=O)O)c1
Drug uptake (Brain [18]): Not Active
